Measurements published in ChEMBL document CHEMBL3992501, “Synthesis and biological evaluation of salinomycin triazole analogues as anticancer agents” (Eur J Med Chem, 2017).
pIC50: −log10 of the molar value.

Key:
[1] = test system: MCF7; test: Antiproliferative activity against human MCF7 cells after 48 hrs by MTT assay; format: functional, cell-based; conditions: MCF7, 48 h
[2] = test system: MDA-MB-231; test: Antiproliferative activity against human MDA-MB-231 cells after 48 hrs by MTT assay; format: functional, cell-based; conditions: MDA-MB-231, 48 h

| Structure (SMILES) | pIC50 [1] | pIC50 [2] |
| --- | --- | --- |
| CC[C@@H](C(=O)[C@@H](C)[C@@H](O)[C@H](C)[C@@H]1O[C@@H]([C@@H](CC)C(=O)O)CC[C@@H]1C)[C@H]1O[C@]2(C=C[C@@H](OC(=O)Cn3cc(COCc4cn(CC(=O)O[C@@H]5C=C[C@]6(O[C@H]([C@@H](CC)C(=O)[C@@H](C)[C@@H](O)[C@H](C)[C@@H]7O[C@@H]([C@@H](CC)C(=O)O)CC[C@@H]7C)[C@@H](C)C[C@H]6C)O[C@@]56CC[C@@](C)([C@H]5CC[C@](O)(CC)[C@H](C)O5)O6)nn4)nn3)[C@]3(CC[C@@](C)([C@H]4CC[C@](O)(CC)[C@H](C)O4)O3)O2)[C@H](C)C[C@@H]1C | 6.13 | 5.33 |
| CC[C@@H](C(=O)[C@@H](C)[C@@H](O)[C@H](C)[C@@H]1O[C@@H]([C@@H](CC)C(=O)OCc2cn(CCCCCCC(=O)O)nn2)CC[C@@H]1C)[C@H]1O[C@]2(C=C[C@@H](O)[C@]3(CC[C@@](C)([C@H]4CC[C@](O)(CC)[C@H](C)O4)O3)O2)[C@H](C)C[C@@H]1C | 4.79 | 4.71 |
| CC[C@@H](C(=O)[C@@H](C)[C@@H](O)[C@H](C)[C@@H]1O[C@@H]([C@@H](CC)C(=O)O)CC[C@@H]1C)[C@H]1O[C@]2(C=C[C@@H](OC(=O)Cn3cc(CCCC(=O)O)nn3)[C@]3(CC[C@@](C)([C@H]4CC[C@](O)(CC)[C@H](C)O4)O3)O2)[C@H](C)C[C@@H]1C | 5.44 | 5.71 |
| CC[C@@H](C(=O)[C@@H](C)[C@@H](O)[C@H](C)[C@@H]1O[C@@H]([C@@H](CC)C(=O)O)CC[C@@H]1C)[C@H]1O[C@]2(C=C[C@@H](OC(=O)Cn3cc(-c4cccc(N)c4)nn3)[C@]3(CC[C@@](C)([C@H]4CC[C@](O)(CC)[C@H](C)O4)O3)O2)[C@H](C)C[C@@H]1C | 5.78 | 5.48 |
| CC[C@@H](C(=O)[C@@H](C)[C@@H](O)[C@H](C)[C@@H]1O[C@@H]([C@@H](CC)C(=O)OCc2cn(CCCCC(=O)O)nn2)CC[C@@H]1C)[C@H]1O[C@]2(C=C[C@@H](O)[C@]3(CC[C@@](C)([C@H]4CC[C@](O)(CC)[C@H](C)O4)O3)O2)[C@H](C)C[C@@H]1C | 4.70 | 4.58 |
| CC[C@@H](C(=O)[C@@H](C)[C@@H](O)[C@H](C)[C@@H]1O[C@@H]([C@@H](CC)C(=O)O)CC[C@@H]1C)[C@H]1O[C@]2(C=C[C@@H](OC(=O)Cn3cc(CO)nn3)[C@]3(CC[C@@](C)([C@H]4CC[C@](O)(CC)[C@H](C)O4)O3)O2)[C@H](C)C[C@@H]1C | 5.48 | 5.57 |
| CC[C@@H](C(=O)[C@@H](C)[C@@H](O)[C@H](C)[C@@H]1O[C@@H]([C@@H](CC)C(=O)OCc2cn(CCC(=O)O)nn2)CC[C@@H]1C)[C@H]1O[C@]2(C=C[C@@H](O)[C@]3(CC[C@@](C)([C@H]4CC[C@](O)(CC)[C@H](C)O4)O3)O2)[C@H](C)C[C@@H]1C | 4.43 | 4.06 |
| CC[C@@H](C(=O)[C@@H](C)[C@@H](O)[C@H](C)[C@@H]1O[C@@H]([C@@H](CC)C(=O)O)CC[C@@H]1C)[C@H]1O[C@]2(C=C[C@@H](OC(=O)Cn3cc(CCO)nn3)[C@]3(CC[C@@](C)([C@H]4CC[C@](O)(CC)[C@H](C)O4)O3)O2)[C@H](C)C[C@@H]1C | 5.67 | 5.33 |
| CC[C@@H](C(=O)[C@@H](C)[C@@H](O)[C@H](C)[C@@H]1O[C@@H]([C@@H](CC)C(=O)O)CC[C@@H]1C)[C@H]1O[C@]2(C=C[C@@H](OC(=O)Cn3cc(COCCOC(=O)c4cn(CC(=O)O[C@@H]5C=C[C@]6(O[C@H]([C@@H](CC)C(=O)[C@@H](C)[C@@H](O)[C@H](C)[C@@H]7O[C@@H]([C@@H](CC)C(=O)O)CC[C@@H]7C)[C@@H](C)C[C@H]6C)O[C@@]56CC[C@@](C)([C@H]5CC[C@](O)(CC)[C@H](C)O5)O6)nn4)nn3)[C@]3(CC[C@@](C)([C@H]4CC[C@](O)(CC)[C@H](C)O4)O3)O2)[C@H](C)C[C@@H]1C | 6.22 | 5.17 |
| CC[C@@H](C(=O)[C@@H](C)[C@@H](O)[C@H](C)[C@@H]1O[C@@H]([C@@H](CC)C(=O)OCc2cn(CCCCCCCCCCC(=O)O)nn2)CC[C@@H]1C)[C@H]1O[C@]2(C=C[C@@H](O)[C@]3(CC[C@@](C)([C@H]4CC[C@](O)(CC)[C@H](C)O4)O3)O2)[C@H](C)C[C@@H]1C | 5.44 | 5.37 |
| CC[C@@H](C(=O)[C@@H](C)[C@@H](O)[C@H](C)[C@@H]1O[C@@H]([C@@H](CC)C(=O)O)CC[C@@H]1C)[C@H]1O[C@]2(C=C[C@@H](OC(=O)Cn3cc(COCCOCc4cn(CC(=O)O[C@@H]5C=C[C@]6(O[C@H]([C@@H](CC)C(=O)[C@@H](C)[C@@H](O)[C@H](C)[C@@H]7O[C@@H]([C@@H](CC)C(=O)O)CC[C@@H]7C)[C@@H](C)C[C@H]6C)O[C@@]56CC[C@@](C)([C@H]5CC[C@](O)(CC)[C@H](C)O5)O6)nn4)nn3)[C@]3(CC[C@@](C)([C@H]4CC[C@](O)(CC)[C@H](C)O4)O3)O2)[C@H](C)C[C@@H]1C | 6.04 | 5.39 |
| CC[C@@H](C(=O)[C@@H](C)[C@@H](O)[C@H](C)[C@@H]1O[C@@H]([C@@H](CC)C(=O)O)CC[C@@H]1C)[C@H]1O[C@]2(C=C[C@@H](OC(=O)Cn3cc(C(=O)O)nn3)[C@]3(CC[C@@](C)([C@H]4CC[C@](O)(CC)[C@H](C)O4)O3)O2)[C@H](C)C[C@@H]1C | 5.73 | 5.19 |
| CC[C@@H](C(=O)[C@@H](C)[C@@H](O)[C@H](C)[C@@H]1O[C@@H]([C@@H](CC)C(=O)OCc2cn(CC(=O)O)nn2)CC[C@@H]1C)[C@H]1O[C@]2(C=C[C@@H](O)[C@]3(CC[C@@](C)([C@H]4CC[C@](O)(CC)[C@H](C)O4)O3)O2)[C@H](C)C[C@@H]1C | 4.86 | < 4.00 |
| CC[C@@H](C(=O)[C@@H](C)[C@@H](O)[C@H](C)[C@@H]1O[C@@H]([C@@H](CC)C(=O)O)CC[C@@H]1C)[C@H]1O[C@]2(C=C[C@@H](OC(=O)Cn3cc(CCC(=O)O)nn3)[C@]3(CC[C@@](C)([C@H]4CC[C@](O)(CC)[C@H](C)O4)O3)O2)[C@H](C)C[C@@H]1C | 5.69 | 5.50 |
| CC[C@@H](C(=O)[C@@H](C)[C@@H](O)[C@H](C)[C@@H]1O[C@@H]([C@@H](CC)C(=O)O)CC[C@@H]1C)[C@H]1O[C@]2(C=C[C@@H](OC(=O)Cn3cc(CCOC(=O)c4cn(CC(=O)O[C@@H]5C=C[C@]6(O[C@H]([C@@H](CC)C(=O)[C@@H](C)[C@@H](O)[C@H](C)[C@@H]7O[C@@H]([C@@H](CC)C(=O)O)CC[C@@H]7C)[C@@H](C)C[C@H]6C)O[C@@]56CC[C@@](C)([C@H]5CC[C@](O)(CC)[C@H](C)O5)O6)nn4)nn3)[C@]3(CC[C@@](C)([C@H]4CC[C@](O)(CC)[C@H](C)O4)O3)O2)[C@H](C)C[C@@H]1C | 6.15 | 5.05 |
| CC[C@@H](C(=O)[C@@H](C)[C@@H](O)[C@H](C)[C@@H]1O[C@@H]([C@@H](CC)C(=O)OCc2cn(CCCCCC(=O)O)nn2)CC[C@@H]1C)[C@H]1O[C@]2(C=C[C@@H](O)[C@]3(CC[C@@](C)([C@H]4CC[C@](O)(CC)[C@H](C)O4)O3)O2)[C@H](C)C[C@@H]1C | 4.44 | 4.36 |
| CC[C@@H](C(=O)[C@@H](C)[C@@H](O)[C@H](C)[C@@H]1O[C@@H]([C@@H](CC)C(=O)O)CC[C@@H]1C)[C@H]1O[C@]2(C=C[C@@H](OC(=O)Cn3cc(COCCO)nn3)[C@]3(CC[C@@](C)([C@H]4CC[C@](O)(CC)[C@H](C)O4)O3)O2)[C@H](C)C[C@@H]1C | 5.91 | 5.39 |
| CC[C@@H](C(=O)[C@@H](C)[C@@H](O)[C@H](C)[C@@H]1O[C@@H]([C@@H](CC)C(=O)O)CC[C@@H]1C)[C@H]1O[C@]2(C=C[C@@H](OC(=O)CCl)[C@]3(CC[C@@](C)([C@H]4CC[C@](O)(CC)[C@H](C)O4)O3)O2)[C@H](C)C[C@@H]1C | 5.73 | 5.23 |
| CC[C@@H](C(=O)[C@@H](C)[C@@H](O)[C@H](C)[C@@H]1O[C@@H]([C@@H](CC)C(=O)OCc2cn(CCCC(=O)O)nn2)CC[C@@H]1C)[C@H]1O[C@]2(C=C[C@@H](O)[C@]3(CC[C@@](C)([C@H]4CC[C@](O)(CC)[C@H](C)O4)O3)O2)[C@H](C)C[C@@H]1C | 4.39 | 4.28 |
| CC[C@@H](C(=O)[C@@H](C)[C@@H](O)[C@H](C)[C@@H]1O[C@@H]([C@@H](CC)C(=O)O)CC[C@@H]1C)[C@H]1O[C@]2(C=C[C@@H](O)[C@]3(CC[C@@](C)([C@H]4CC[C@](O)(CC)[C@H](C)O4)O3)O2)[C@H](C)C[C@@H]1C [SALINOMYCIN] | 5.53 | 5.19 |
